The text below walks through data of ChEMBL document CHEMBL1146268, “Ponapensin, a cyclopenta[bc]benzopyran with potent NF-kappaB inhibitory activity from Aglaia ponapensis” (Bioorg Med Chem Lett, 2007).

The structures appear in SMILES notation. Values after ≈ are worked out from the molar mass of the structure shown. Where only a bound is given, the exact number is not on record here.

Experiment [1] has as its system MCF7. The experiment can be described thus: Cytotoxicity against MCF7 cells. Format: functional. The note with it: Homo sapiens, read-out: ED50 (the source's name).
The subject of experiment [2] is LNCaP. The experiment can be described thus: Cytotoxicity against LNCaP cells. The note with it: Homo sapiens, read-out: ED50 (the source's name). Format: functional.
Experiment [3] relates to Lu1. The experiment can be described thus: Cytotoxicity against Lu1 cells. The note with it: Homo sapiens, read-out: ED50 (the source's name). The class given is functional.
A short description of experiment [4]: Inhibition of NF-kappaB by ELISA assay. Further details: species or system Homo sapiens. For orientation: An ELISA detects its analyte on a solid surface through an enzyme-linked reagent.

Consider `C/C=C1/C(=O)C[C@H]2[C@@H]3CC=C4[C@@H](O)[C@@H](O)CC[C@]4(C)[C@H]3CC[C@]12C`, for which the EC50 in experiment [1] is 4.2 µg/mL (≈ 12.7 µM); in experiment [2], 4.7 µg/mL (≈ 14.2 µM); in experiment [3], 4.6 µg/mL (≈ 13.9 µM).
The term IC50 denotes the midpoint of a concentration-inhibition curve. High values mean weaker potency, low ones greater potency. In experiment [4], `COc1ccc([C@]23Oc4cc(OC)cc(OC)c4[C@](O)([C@H](C(=O)N4CCC[C@@H]4OC)[C@H]2c2ccccc2)[C@@H]3O)cc1` (relative stereo) [PONAPENSIN] displayed an IC50 of 60 nM.
Still for that read-out and setting: to `CCC(C)C(=O)N[C@@H]1CCCN1C(=O)[C@@H]1[C@@H](c2ccccc2)[C@]2(c3ccc(OC)cc3)Oc3cc(OC)cc(OC)c3[C@@]1(O)[C@@H]2OC(C)=O` (some centres undefined) [4-EPIAGLAIN A] belongs > 5000 nM; to `CCC(C)C(=O)N[C@@H]1CCCN1C(=O)[C@H]1[C@H](c2ccccc2)[C@]2(c3ccc(OC)cc3)Oc3cc(OC)cc(OC)c3[C@@]1(O)[C@@H]2O` (some centres undefined) [AGLAIN B], > 5000 nM.
Consider `COc1ccc([C@@]23Oc4cc(OC)cc(OC)c4[C@]2(O)[C@H](O)[C@H](C(=O)N(C)C)[C@H]3c2ccccc2)cc1` [ROCAGLAMIDE], for which the midpoint of inhibition in experiment [4], the IC50, lay at 2000 nM.
Still for that read-out and setting: under `COc1ccc(C2OC(=O)c3c(OC)cc(OC)cc32)cc1` (centres undefined) stands 1900 nM; under `COC(=O)[C@H]1[C@@H](O)[C@@]2(O)c3c(OC)cc(OC)cc3O[C@@]2(c2ccc(OC)cc2)[C@@H]1c1ccccc1` [AGLAFOLIN], 2300 nM.
